Results on 25 compounds are retold here after patent publication US6291671A, “Process for producing drug complexes” (Daiichi Pharmaceutical Co., Ltd., priority 1996, dated 2001).

Structures can show the parent of a compound that is named as a salt. Ends that are not written are not given here. Peptide text beside a SMILES is read from it. * marks the point of attachment. DW‑8089 = (1S,9S)-1-amino-9-ethyl-2,3-dihydro-9-hydroxy-1H,12H-benzo[de]pyrano[3',4':6,7]indolizino[1,2-b]quinoline-10,13(9H,15H)-dione, CC[C@@]1(O)C(=O)OCc2c1cc1n(c2=O)Cc2c-1nc1cccc3c1c2[C@@H](N*)CC3; Exatecan = CC[C@@]1(O)C(=O)OCc2c1cc1n(c2=O)Cc2c-1nc1cc(F)c(C)c3c1c2[C@@H](N*)CC3

Series [1] concerns Walker 256 tumor-bearing rats. As to the kind of experiment: Releasing rate of spacers judged from efficacy of doxorubicin drug complexes or free doxorubicin at tumorous sites. The format is in vivo, rat. Particulars: for releasing rate of spacer: drug complexes bound with doxorubicin, Walker 256 tumor-bearing rats. The source says: Specific examples of the spacer are shown in the following table; however, the spacer used for the method for preparing the drug complexes of the present invention is not limited to those mentioned below, and it can be readily understood that one of ordinary skilled in the art can appropriately choose a spacer so as to achieve an optimum releasing rate of a drug compound. In the table, the left ends of peptide sequences are N-terminuses and the residues of drug compounds are bound to C-terminuses.D-Phe represents a D-phenylalanine residue and the other amino acids represent L-amino acids. The degrees of the releasing rate were judged from the degree of appearance of efficacy of the drug complexes bound with doxorubicin against Walker 256 tumor-bearing rats, or from the free doxorubicin concentration at tumorous sites of Walker 256 tumor-bearing rats.

Series [2] relates to Meth A tumor-bearing mice. Briefly: Antitumor activity, Meth A tumor-bearing mice, i.v. every 4 days 4 times. Particulars: Example 11, every 4 days 4 times. The format is in vivo, mouse. The protocol:
(§1) Meth A tumor-bearing mice were prepared (7 mice per group) by subcutaneously transplanting 1×10^6 mouse fibrosarcoma Meth A cells into the right inguinal regions of BALB/c male mice (7-week old). On day 7, the drug complex of Example 9 dissolved in distilled water for injection was injected in the tail vein of the Meth A tumor-bearing mice every 4 days 4 times. On day 21 after the transplantation, tumor masses were excised and weighed to calculate the inhibition rate of tumor growth according to the following equation: inhibition rate of tumor growth (%)=[1-(average tumor weight of the group administered with the test sample/average tumor weight of control group)]×100.

Series [3] relates to Meth A tumor-bearing mice. As to the kind of experiment: Antitumor activity, Meth A tumor-bearing mice, single administration on day 7. Type of series: in vivo, mouse. Particulars: for Inhibition rate: calculated based on the drug compound; for antitumor activity (in words) / effective dose-range (in words): single administration, compared to the drug compound, per se. How it is done: as §1
Meth A tumor-bearing mice (6 mice per group) were prepared according to a similar manner to that of Example 11 and the antitumor activity was compared to that obtained by single administration of the drug complexes of Examples 8 and 9 once on day 7.
Meth A tumor-bearing mice (6 mice per group) were prepared according to a similar manner to that of Example 11 and the antitumor activity of the drug complex of Example 15 was examined by single administration in a similar manner to that of Example 12.
Meth A tumor-bearing mice (6 mice per group) were prepared according to a similar manner to that of Example 1, and the antitumor activity of the drug complex of Example 41 was examined in the cases of single administration in a similar manner to that of Example 12, and its antitumor activity was compared to that of the drug compound, per se.
Meth A tumor-bearing mice (6 mice per group) were prepared according to a similar manner to that of Example 11, and the antitumor activity was examined according to a similar method to that in Example 12 by single administration of the drug complexes of Examples 29, 43, and 44, respectively.

[4] abbreviates: Example 56 (table 8), 20 mg/kg single.
Setting [5] is: Example 56 (table 8), 40 mg/kg single.
[6] abbreviates: Example 56 (table 8), 80 mg/kg single.
[7] abbreviates: Example 56 (table 8), 100 mg/kg single.

Consider -Phe-Gly-, for which the “releasing rate of spacer” value in series [1] is “high releasing rate”.
The same measure, in the same setting: as for -Pro-Gly-, the entry is “relatively low releasing rate”; as for -Gly-Phe-, “low releasing rate”.
The same measure, in the same setting: as for “-Gly-Gly-Gly-Gly-Gly-Gly-: spacer of drug complexes bound with doxorubicin”, the entry is “relatively high releasing rate”.
On to -Phe-Phe-, for which the “releasing rate of spacer” value in series [1] was “relatively low releasing rate”.
For “-Gly-Gly-Gly-Phe-Gly-: spacer of drug complexes bound with doxorubicin (GGGFG; not fully specified; printed as -Gly-Gly-Gly-Phe-Gly-; also: spacer between polysaccharide derivative and drug in drug complex)”, the “releasing rate of spacer” value in series [1] is reported as “high releasing rate”.
In the case of `CC[C@@]1(O)C(=O)OCc2c1cc1n(c2=O)Cc2c-1nc1cc(F)c(C)c3c1c2[C@@H](NC(=O)CNC(=O)[C@H](Cc1ccccc1)NC(=O)CNC(=O)CN)CC3` [H)N-Gly-Gly-Phe-Gly-NH--A, 3'-N-(Gly-Gly-Phe-Gly)-NH--A (A--NH2 =DX-8951) Trifluoroacetic Acid Salt] (H-GGFG-Exatecan), in series [2], the “antitumor activity (in words)” value is given as “not effective”.
Turning to “-Gly-Gly-Gly-Gly-: spacer of drug complexes bound with doxorubicin (GGGG; not fully specified; printed as -Gly-Gly-Gly-Gly-; also: spacer between polysaccharide derivative and drug in drug complex)”, the “releasing rate of spacer” value in series [1] is given as “low releasing rate”.
With “-Phe-Phe-Gly-Gly-: spacer of drug complexes bound with doxorubicin (FFGG; not fully specified; printed as -Phe-Phe-Gly-Gly-; also: spacer between polysaccharide derivative and drug in drug complex)”, the “releasing rate of spacer” value in series [1] is “high releasing rate”.
As to “-Gly-Gly-Phe-Gly-: spacer of drug complexes bound with doxorubicin (GGFG; not fully specified; printed as -Gly-Gly-Phe-Gly-; also: spacer between polysaccharide derivative and drug in drug complex)”, the “releasing rate of spacer” value in series [1] is “high releasing rate”. In addition, the “release of the drug compound (in words)” value in series [1] (spacer for doxorubicin) is on record as “can release the drug compound at high concentration in a short time”.
Regarding “-Gly-Gly-Phe-Phe-: spacer of drug complexes bound with doxorubicin (GGFF; not fully specified; printed as -Gly-Gly-Phe-Phe-; also: spacer between polysaccharide derivative and drug in drug complex)”, in series [1], the “releasing rate of spacer” value is reported as “relatively high releasing rate”.
For -Gly-Gly-, the “releasing rate of spacer” value in series [1] is recorded as “low releasing rate”.
On the same count and under the same terms, the same measure for -Leu-Gly-: “high releasing rate”; for -Ala-Gly-: “relatively low releasing rate”; for “-Gly-Gly-Gly-Phe-: spacer of drug complexes bound with doxorubicin (GGGF; not fully specified; printed as -Gly-Gly-Gly-Phe-; also: spacer between polysaccharide derivative and drug in drug complex)”: “relatively low releasing rate”.
Take “Carboxymethyldextran Polyalcohol-Gly-Gly-Gly-Phe-NH--A' (A--NH2 =DX-8951) [Example 8] ({carboxymethyldextran polyalcohol}-GGGF-Exatecan; also: N-terminus linked to carboxymethyldextran polyalcohol, C-terminus amide-linked to drug residue A' (DX-8951))”: the Inhibition rate in series [3] (Example 12 (Table 3), 5 mg/kg single) is 76%; in series [3] (Example 12 (Table 3), 10 mg/kg single), 85%. The “antitumor activity (in words)” value in series [3] was “(Polysaccharide derivative)-Gly-Gly-Gly-Phe-NH--A'> the drug compound, per se”.
As to -Gly-Gly-Gly-, the “releasing rate of spacer” value in series [1] was “low releasing rate”.
Turning to “Carboxymethyldextran Polyalcohol-Gly-Gly-Gly-Phe-NH--A' (A--NH2 =DX-8951) [Example 29] ({carboxymethyldextran polyalcohol}-GGGF-Exatecan; also: N-terminus linked to carboxymethyldextran polyalcohol, C-terminus amide-linked to drug residue A' (DX-8951))”, the Inhibition rate is listed as 79% in series [3] (Example 56 (table 8), 5 mg/kg single); 89% in series [3] (Example 56 (table 8), 10 mg/kg single); 99% in series [3] (setting [4]); 99% in series [3] (Example 56 (table 8), 30 mg/kg single). Moreover, the “antitumor activity (in words)” value in series [3] is recorded as “high antitumor activity”. In series [3], the “effective dose-range (in words)” value was “broader effective dose-range”.
With -Ser-Gly-, in series [1], the “releasing rate of spacer” value is recorded as “low releasing rate”.
On the same count and under the same terms, the same measure for -Tyr-Gly-: “high releasing rate”; for “-Phe-Gly-Gly-Gly-: spacer of drug complexes bound with doxorubicin (FGGG; not fully specified; printed as -Phe-Gly-Gly-Gly-; also: spacer between polysaccharide derivative and drug in drug complex)”: “high releasing rate”.
As to “α-methylcarboxymethyldextran Polyalcohol-Gly-Gly-Gly-Phe-NH--A' (A--NH2 =DX-8951) [Example 44]”, the Inhibition rate in series [3] (setting [4]) is given as 75%; in series [3] (setting [5]), 97%; in series [3] (setting [6]) it was 94%; in series [3] (setting [7]), 96%. In addition, in series [3], the “antitumor activity (in words)” value is given as “high antitumor activity”. In addition, the “effective dose-range (in words)” value in series [3] was “broader effective dose-range”.
On to “-Gly-Phe-Gly-Gly-: spacer of drug complexes bound with doxorubicin (GFGG; not fully specified; printed as -Gly-Phe-Gly-Gly-; also: spacer between polysaccharide derivative and drug in drug complex)”, for which the “releasing rate of spacer” value in series [1] is “high releasing rate”.
As for “Carboxymethyldextran Polyalcohol-Gly-Gly-Phe-Gly-NH--A' (A--NH2 =DW-8089) ({carboxymethyldextran polyalcohol}-GGFG-{DW‑8089}; also: N-terminus linked to carboxymethyldextran polyalcohol, C-terminus amide-linked to drug residue A' (DW-8089)) [Example 41]”, the Inhibition rate was 61% in series [3] (Example 55 (table 7), 3.125 mg/kg single); 81% in series [3] (Example 55 (table 7), 6.25 mg/kg single); 95% in series [3] (Example 55 (table 7), 12.5 mg/kg single); 99% in series [3] (Example 55 (table 7), 25 mg/kg single). Further, in series [3], the “antitumor activity (in words)” value is given as “remarkably enhanced antitumor activity”. In addition, in series [3], the “effective dose-range (in words)” value was “broader effective dose-range”.
On to “Carboxymethyldextran Polyalcohol-Gly-Gly-Gly-Phe-NH--A' (A--NH2 =)X-8951) ({carboxymethyldextran polyalcohol}-GGGF-Exatecan; also: N-terminus linked to carboxymethyldextran polyalcohol, C-terminus amide-linked to drug residue A' (DX-8951)) [Example 43]”, for which the Inhibition rate in series [3] (setting [4]) is given as 75%; in series [3] (setting [5]), 82%; in series [3] (setting [6]), 92%; in series [3] (setting [7]), 94%. Further, in series [3], the “antitumor activity (in words)” value is on record as “high antitumor activity”. Further, the “effective dose-range (in words)” value in series [3] is reported as “broader effective dose-range”.
